Data: US8268846B2, “Amino heterocyclic linked pyrimidine derivatives” (Abbott Laboratories, priority 2008, dated 2012)

What was measured:
histamine H4 receptor [1] = target: T1, histamine H4 receptor (Homo sapiens, UniProt Q9H3N8); assay: In vitro histamine H4 potency in FLIPR (Ca2+ flux, HEK-293 cells coexpressing Gαqi5); assay type: cell-based; settings: for Potency: Kb values for antagonists and inverse agonists, block of histamine-induced fluorescence
T1 construct: expressed in transfected cells
From the text: There are many methods available to show the effectiveness of compounds as histamine H4 receptor ligands. Histamine H4 receptors from mammalian species have been cloned. Methods to clone, express, and assess the potency and functional activity of such cloned genes are well known to those skilled in the art of molecular biology. Examples of methods of cloning and expressing histamine H4 receptors, and of assessing the potency and functional activity are described in Nguyen, et al. Molecular Pharmacology (2001) vol. 59 pp. 427-433; Zhu, et al. Molecular Pharmacology (2001) vol. 59 pp. 434-441; Coge, et al., Biochemical and Biophysical Research Communications (2001) vol. 284, pp. 301-309; Liu, et al. Molecular Pharmacology (2001) vol. 59 pp. 420-426; Liu, et al. Journal of Pharmacology and Experimental Therapeutics (2001) v. 299, pp. 121-130; and Thurmond, et al. Journal of Pharmacology and Experimental Therapeutics (2004) v. 309, pp. 404-413. In the present case, to determine the potency and effectiveness of representative compounds of this invention as histamine-H4 receptor ligands (H4 receptor ligands), the following tests were conducted according to previously described methods (see Esbenshade, et al., Biochemical Pharmacology (2004), vol. 68, pp. 933-945, and in Krueger, et al., Journal of Pharmacology and Experimental Therapeutics (2005) v. 314, pp. 271-281): histamine H4 receptors were cloned and stably expressed in HEK-293 (human embryonic kidney) cells coexpressing a Gαqi5. Before testing, cells are loaded with a Ca^+2 sensitive fluorescent dye, in this case Fluo-4 (Invitrogen, Carlsbad, Calif.). In the case of partial agonist or agonist ligands, addition of compound to the cells leads to the increase in intracellular Ca^+2 which is detected by FLIPR (Fluorescence Imaging Plate Reader; Molecular Devices, Sunnyvale, Calif.) technology. In a similar manner, compounds that are antagonists or inverse agonists, block the increase in fluorescence induced by the full histamine H4 agonist histamine, and partial agonists reduce the amount of fluorescence induced by the full histamine H4 agonist histamine. The fluorescence intensities measured before addition of the test compound are subtracted from the fluorescence intensities at later time points. Peak response values determined at each concentration of ligand are expressed as a percentage of the response obtained with the full agonist histamine. Concentration versus response data are analyzed to obtain compound potency as Kb values for antagonists and inverse agonists and as EC50 values for partial agonists.

histamine H4 receptor [2] = target: T1, histamine H4 receptor; assay: [3H]-histamine competition binding assay, membranes of HEK-293 cells transfected with histamine H4 receptor; settings: displacing 3H-histamine; Ki by Cheng-Prusoff equation; read-out: Potency
Experimental: The potency of compounds of the invention in displacing ^3H-histamine in competition binding assays is assessed by methods described in Esbenshade, et al., Biochemical Pharmacology (2004), vol. 68, pp. 933-945. In this assay, membranes were prepared from HEK-293 cells transiently transfected with the pCINeo expression vector harboring the histamine H4 receptor by homogenization of the cells on ice in TE buffer (50 mM Tris-HCl buffer, pH 7.4, containing 5 mM EDTA), 1 mM benzamidine, 2 μg/mL aprotinin, 1 μg/mL leupeptin, and 1 μg/mL pepstatin. The homogenate was centrifuged at 40,000 g for 20 minutes at 4° C. This step was repeated, and the resulting pellet was resuspended in TE buffer. Aliquots were frozen at −70° C. until needed. On the day of assay, membranes were thawed and diluted with TE buffer. Competition radioligand binding assays were performed with increasing concentrations of test compound in the presence of [^3H]-histamine incubated at 25° C. for 1 hour in a total volume of 0.5 mL of 50 mM Tris, 5 mM EDTA, pH 7.4. All binding reactions were terminated by filtration under vacuum onto polyethylenimine (0.3%) presoaked Unifilters (PerkinElmer Life Sciences) or Whatman GF/B filters (Whatman, Clifton, N.J.) followed by three brief washes with 4 mL of ice-cold TE buffer. Bound radiolabel was determined by liquid scintillation counting. For all of the radioligand competition binding assays, IC50 values and Hill slopes were determined by Hill transformation of the data and Ki values were determined by the Cheng-Prusoff equation. The following table of representative histamine H4 receptor ligands is provided, along with potency values: […]

| Potency (histamine H4 receptor [1]) | Ki (histamine H4 receptor [2]) | EC50 (histamine H4 receptor [1]; EC50 values for partial agonists) | Compound |
| --- | --- | --- | --- |
| 204 nM |  |  | Nc1nccc(NCCNc2nc(N)nc3c2CCCc2ccccc2-3)n1 [Example 1, N^4-{2-[(2-aminopyrimidin-4-yl)amino]ethyl}-6,7-dihydro-5H-benzo[6,7]cyclohepta[1,2-d]pyrimidine-2,4-diamine] |
| 25 nM | 3.5 nM |  | CN(CCNc1ccnc(N)n1)c1nc(N)nc2c1CCCc1ccccc1-2 [Example 2, N^4-{2-[(2-aminopyrimidin-4-yl)amino]ethyl}-N^4-methyl-6,7-dihydro-5H-benzo[6,7]cyclohepta[1,2-d]pyrimidine-2,4-diamine] |
| 309 nM |  |  | Nc1nccc(NCCCNc2nc(N)nc3c2CCCc2ccccc2-3)n1 [Example 3, N^4-{3-[(2-aminopyrimidin-4-yl)amino]propyl}-6,7-dihydro-5H-benzo[6,7]cyclohepta[1,2-d]pyrimidine-2,4-diamine] |
| 1349 nM |  |  | Nc1ccnc(NCCNc2nc(N)nc3c2CCCc2ccccc2-3)n1 [Example 4, N^4-{2-[(4-aminopyrimidin-2-yl)amino]ethyl}-6,7-dihydro-5H-benzo[6,7]cyclohepta[1,2-d]pyrimidine-2,4-diamine] |
| 8.7 nM |  |  | Nc1nccc(NCCNc2cc(-c3ccccc3)nc(N)n2)n1 [Example 5, N^4-{2-[(2-aminopyrimidin-4-yl)amino]ethyl}-6-phenylpyrimidine-2,4-diamine] |
| 2.5 nM | 6.6 nM |  | Nc1nccc(NCCNc2cc(-c3cccc(Cl)c3)nc(N)n2)n1 [Example 6, N^4-{2-[(2-aminopyrimidin-4-yl)amino]ethyl}-6-(3-chlorophenyl)pyrimidine-2,4-diamine] |
| 69 nM |  |  | Nc1nccc(NCCNc2cc(-c3cc(Cl)cc(Cl)c3)nc(N)n2)n1 [Example 7, N^4-{2-[(2-aminopyrimidin-4-yl)amino]ethyl}-6-(3,5-dichlorophenyl)pyrimidine-2,4-diamine] |
| 589 nM |  |  | COc1ccc(Cl)cc1-c1cc(NCCNc2ccnc(N)n2)nc(N)n1 [Example 8, N^4-{2-[(2-aminopyrimidin-4-yl)amino]ethyl}-6-(5-chloro-2-methoxyphenyl)pyrimidine-2,4-diamine] |
| 85 nM | 20 nM |  | Nc1nccc(NCCNc2cc(/C=C/c3ccccc3)nc(N)n2)n1 [Example 9, N^4-{2-[(2-aminopyrimidin-4-yl)amino]ethyl}-6-[(E)-2-phenylvinyl]pyrimidine-2,4-diamine] |
| 32 nM | 7.4 nM |  | Nc1nccc(NCCNc2nc(N)nc3c2CCCC32CCCC2)n1 [Example 10, N^4′-{2-[(2-aminopyrimidin-4-yl)amino]ethyl}-6′,7′-dihydro-5′H-spiro[cyclopentane-1,8′-quinazoline]-2′,4′-diamine] |
|  |  | 2340 nM | Nc1nccc(NCCNc2nc(N)nc3c2CCCC(c2ccccc2)C3)n1 (stereo not shown) [Example 11, N^4-{2-[(2-aminopyrimidin-4-yl)amino]ethyl}-8-phenyl-6,7,8,9-tetrahydro-5H-cyclohepta[d]pyrimidine-2,4-diamine] |
| 2089 nM |  |  | Nc1nccc(NCCNc2ncnc3c2oc2ccccc23)n1 [Example 12, N^4-[2-([1]benzofuro[3,2-d]pyrimidin-4-ylamino)ethyl]pyrimidine-2,4-diamine] |
